Results taken from ChEMBL document CHEMBL6115031, “Structure-Based Optimization of Moracin M as Potent and Selective PDE4 Inhibitors with Antipsoriasis Effects” (J Med Chem, 2025).
Activity calls are given as the source filed them.

Tests used:
[1] = tested on: Mus musculus; test: Anti-psoriasis effect in IMQ-induced female BALB/c mouse assessed as decrease in skin thickness at 20 mg/kg administered topically as 0.3 % ointment pretreated with IMQ for 6 hrs followed by compound addition once daily for 7 days; type: functional, organism-based; conditions: time 7.0 day
[2] = tested on: HaCaT; test: Anti-psoriasis effect in M5-stimulated human HaCaT cells assessed as inhibition of cell proliferation at 20 uM pretreated with M5 followed by compound addition and measured after 24 hrs; type: functional, cell-based
[3] = tested on: Mus musculus; test: Anti-psoriasis effect in IMQ-induced female BALB/c mouse assessed as reduction in severity of skin erythema at 20 mg/kg administered topically as 0.3 % ointment pretreated with IMQ for 6 hrs followed by compound addition once daily for 7 days; type: functional, organism-based; conditions: time 7.0 day
[4] = tested on: Mus musculus; test: Anti-psoriasis effect in IMQ-induced female BALB/c mouse model assessed as reduction in fibroblast proliferation at 20 mg/kg administered topically as 0.3 % ointment pretreated with IMQ for 6 hrs followed by compound addition once daily for 7 days by H and E staining based analysis; type: functional, organism-based; conditions: time 7.0 day
[5] = tested on: HaCaT; test: Anti-psoriasis activity in M5-stimulated human HaCaT cells assessed as restoration of cAMP level at 20 uM incubated for 2 hrs by competitive ELISA; type: functional, cell-based
[6] = tested on: Mus musculus; test: Anti-psoriasis effect in IMQ-induced female BALB/c mouse assessed as decrease in skin scales at 20 mg/kg administered topically as 0.3 % ointment pretreated with IMQ for 6 hrs followed by compound addition once daily for 7 days; type: functional, organism-based; conditions: time 7.0 day
[7] = tested on: Mus musculus; test: Anti-psoriasis effect in female BALB/c mouse model assessed as reduction in K6 protein expression at 20 mg/kg administered topically as 0.3 % ointment pretreated with IMQ for 6 hrs followed by compound addition once daily for 7 days by Western blotting analysis; type: functional, organism-based; conditions: time 7.0 day
[8] = Metabolic stability in rat liver microsomes assessed as half life at 1 uM incubated upto 60 mins in presence of NADPH by LC-MS/MS analysis; type: ADME, Microsome
[9] = tested on: HaCaT; test: Anti-psoriasis effect in M5-stimulated human HaCaT cells assessed as decrease in K17 protein expression at 20 uM pretreated with M5 followed by compound addition and measured after 24 hrs by Western blotting analysis; type: functional, cell-based
[10] = tested on: HaCaT; test: Anti-inflammatory activity in M5- stimulated human HaCaT cells assessed as reduction in IL-17 mRNA level incubated for 24 hrs by q-PCR analysis; type: functional, cell-based; conditions: dose 5-20 µM
[11] = biological target: 3',5'-cyclic-AMP phosphodiesterase 4D (Homo sapiens, UniProt Q08499); test: Inhibition of human PDE4D2 (86 to 413 residues) extracted from Escherichia coli BL21 cells using 3H-cAMP/3H-cGMP as substrate preincubated with compound for 15 mins followed by substrate addition by liquid scintillation counter
Sequence of 3',5'-cyclic-AMP phosphodiesterase 4D (Q08499 whole entry, the tested form may be a part): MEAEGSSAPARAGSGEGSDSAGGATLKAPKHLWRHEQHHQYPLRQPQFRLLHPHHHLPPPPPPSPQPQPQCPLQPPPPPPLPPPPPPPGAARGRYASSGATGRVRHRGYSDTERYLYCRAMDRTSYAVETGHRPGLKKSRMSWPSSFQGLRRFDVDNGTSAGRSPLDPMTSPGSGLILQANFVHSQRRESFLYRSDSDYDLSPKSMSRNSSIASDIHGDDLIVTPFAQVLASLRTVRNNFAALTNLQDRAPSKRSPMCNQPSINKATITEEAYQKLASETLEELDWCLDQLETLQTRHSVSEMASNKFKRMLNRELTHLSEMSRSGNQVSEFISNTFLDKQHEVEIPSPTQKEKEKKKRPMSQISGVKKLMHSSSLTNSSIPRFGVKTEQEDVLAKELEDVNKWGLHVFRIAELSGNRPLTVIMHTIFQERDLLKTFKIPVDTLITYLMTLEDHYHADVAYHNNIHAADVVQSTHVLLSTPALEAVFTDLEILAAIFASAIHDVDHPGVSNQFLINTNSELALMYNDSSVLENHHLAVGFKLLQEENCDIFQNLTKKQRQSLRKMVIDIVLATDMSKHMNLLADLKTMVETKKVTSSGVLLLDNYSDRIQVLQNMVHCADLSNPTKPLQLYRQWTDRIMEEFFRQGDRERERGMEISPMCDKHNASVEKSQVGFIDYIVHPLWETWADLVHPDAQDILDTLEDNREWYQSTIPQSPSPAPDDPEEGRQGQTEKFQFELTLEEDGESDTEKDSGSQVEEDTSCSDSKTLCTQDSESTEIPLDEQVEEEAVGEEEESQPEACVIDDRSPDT

[12] = tested on: HaCaT; test: Inhibition of CREB phosphorylation in human HaCaT cells assessed as increase in pCREB/CREB ratio at 20 uM incubated for 2 hrs by Western blotting analysis; type: cell-based
[13] = tested on: Mus musculus; test: Anti-psoriasis effect in IMQ-induced female BALB/c mouse model assessed as reduced bleeding in dermal papilla layers at 20 mg/kg administered topically as 0.3 % ointment pretreated with IMQ for 6 hrs followed by compound addition once daily for 7 days by H and E staining based analysis; type: functional, organism-based; conditions: time 7.0 day
[14] = tested on: Mus musculus; test: Anti-psoriasis effect in IMQ-induced female BALB/c mouse model assessed as reduction in abnormal rete ridges at 20 mg/kg administered topically as 0.3 % ointment pretreated with IMQ for 6 hrs followed by compound addition once daily for 7 days by H and E staining based analysis; type: functional, organism-based; conditions: time 7.0 day
[15] = tested on: RAW264.7; test: Anti-inflammatory activity in LPS-stimulated mouse RAW264.7 cells assessed as reduction in TNF-alpha mRNA level pretreated with compound for 2 hrs followed by LPS stimulation and measured after 6 hrs by q-PCR analysis; type: functional, cell-based; conditions: dose 5-20 µM, time 8.0 hrs
[16] = tested on: Mus musculus; test: Anti-psoriasis effect in IMQ-induced female BALB/c mouse assessed as decrease in erythema scores at 20 mg/kg administered topically as 0.3 % ointment pretreated with IMQ for 6 hrs followed by compound addition once daily for 7 days; type: functional, organism-based; conditions: time 7.0 day
[17] = tested on: Mus musculus; test: Anti-inflammatory activity in IMQ-induced psoriasis in female BALB/c mouse assessed as reduction in TNF-alpha mRNA level at 20 mg/kg administered topically as 0.3 % ointment pretreated with IMQ for 6 hrs followed by compound addition once daily for 7 days by q-PCR analysis; type: functional, organism-based; conditions: time 7.0 day
[18] = biological target: cGMP-specific 3',5'-cyclic phosphodiesterase (Homo sapiens, UniProt O76074); test: Inhibition of PDE5A1 (535 to 860 residues) (unknown origin) extracted from Escherichia coli BL21 cells using 3H-cAMP/3H-cGMP as substrate preincubated with compound for 15 mins followed by substrate addition by liquid scintillation counter
[19] = tested on: RAW264.7; test: Anti-inflammatory activity in LPS-stimulated mouse RAW264.7 cells assessed as reduction in IL-1beta mRNA level pretreated with compound for 2 hrs followed by LPS stimulation and measured after 6 hrs by q-PCR analysis; type: functional, cell-based; conditions: dose 5-20 µM, time 8.0 hrs
[20] = tested on: HaCaT; test: Anti-inflammatory activity in M5- stimulated human HaCaT cells assessed as reduction in CXCL-2 mRNA level incubated for 24 hrs by q-PCR analysis; type: functional, cell-based; conditions: dose 5-20 µM

COC(=O)[C@H]1C[C@@H](Oc2c(O)ccc3cc(-c4ccc(OC(F)F)c(OCC5CC5)c4)oc23)CN1
22.9 min: half-life at 1 µM [8]
8.6 nM: IC50 [11]
active: Activity [1] | Activity [2] | Activity [3] | Activity [4] | Activity [5] | Activity [6] | Activity [7] | Activity [9] | Activity [10] Dose-dependent-effect | inhibition [12] | Activity [13] | Activity [14] | Activity [15] Dose-dependent-effect | Activity [16] | Activity [17] | Activity [19] Dose-dependent-effect | Activity [20] Dose-dependent-effect
1730 nM: IC50 [18]
